The text below walks through data of the supplement of paper PMC12420376.

Experiment [1] relates to KURAMOCHI
Kind of experiment: drug sensitivity score (DSS2) on cancer cell count; higher = more sensitive; extreme values may be limits of the assay. To be noted: 72 h. A digest of the protocol:
(§1)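 Ovarian cancer cells were cultured either alone or directly mixed 1:1 with lung or skin fibroblasts and plated onto 384-well plates acoustically pre-spotted with 528 approved and investigational compounds at 5 concentrations for 72 h of treatment. After fixation, cells were immunostained for CK8/18 with Hoechst and imaged at 10× across 4 fields to count cancer cells. Responses were fitted with 4-parameter logistic curves, and from these fits a drug sensitivity score was derived in Breeze, with screen quality assessed by Z'.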

Experiment [2] deals with OVCAR8. The description is as above. Conditions: 72 h. A digest of the protocol:
as §1

Where [3] appears, read: co-cultured fibroblast: BJHTERT.
Where [4] appears, read: co-cultured fibroblast: none (monoculture).

SMILES strings stand for the structures.

As to `C[C@H]1CNCCCN1S(=O)(=O)c1cccc2cncc(F)c12` [Ripasudil], the drug sensitivity score stood at 1.8 DSS in experiment [1] (setting [3]); 0 DSS in experiment [1] (co-cultured fibroblast: WI38); 0.4 DSS in experiment [1] (setting [4]); 3 DSS in experiment [2] (setting [3]); 6.9 DSS in experiment [2] (co-cultured fibroblast: WI38); 0.2 DSS in experiment [2] (setting [4]).
`Cc1c(Cn2c(C)nc3c(C(=O)O)cc(N4CCOCC4)cc32)cccc1C(F)(F)F`: the drug sensitivity score is 5.5 DSS in experiment [1] (setting [3]); 0.3 DSS in experiment [1] (co-cultured fibroblast: WI38); 6.9 DSS in experiment [1] (setting [4]); 3.7 DSS in experiment [2] (setting [3]); 0 DSS in experiment [2] (co-cultured fibroblast: WI38); 0 DSS in experiment [2] (setting [4]).
`COC(=O)C[C@](O)(CCCC(C)(C)O)C(=O)O[C@@H]1C(OC)=C[C@]23CCCN2CCc2cc4c(cc2[C@H]13)OCO4` [Omacetaxine]: the drug sensitivity score stood at 23.8 DSS in experiment [1] (setting [3]); 24.5 DSS in experiment [1] (co-cultured fibroblast: WI38); 30.6 DSS in experiment [1] (setting [4]); 29.3 DSS in experiment [2] (setting [3]); 30.1 DSS in experiment [2] (co-cultured fibroblast: WI38); 29.8 DSS in experiment [2] (setting [4]).
Consider `CCNC(=O)CCC/C=C\C[C@@H]1[C@@H](/C=C/[C@@H](O)CCc2ccccc2)[C@H](O)C[C@@H]1O` [Bimatoprost], for which the drug sensitivity score in experiment [1] (setting [3]), in experiment [1] (co-cultured fibroblast: WI38), in experiment [1] (setting [4]), in experiment [2] (setting [3]), in experiment [2] (co-cultured fibroblast: WI38) and in experiment [2] (setting [4]) was 0 DSS each time.
In the case of `Cn1cc(CNCC2CCN(c3ncc(C(=O)NO)cn3)CC2)c2ccccc21` [Quisinostat], the drug sensitivity score in experiment [1] (setting [3]) came to 15 DSS; in experiment [1] (co-cultured fibroblast: WI38), 17 DSS; in experiment [1] (setting [4]) it was 18.9 DSS; in experiment [2] (setting [3]) it was 22.6 DSS; in experiment [2] (co-cultured fibroblast: WI38), 15.3 DSS; in experiment [2] (setting [4]), 22.4 DSS.
Regarding `NS(=O)(=O)OC[C@@H]1C[C@@H](n2ccc3c(N[C@H]4CCc5ccccc54)ncnc32)C[C@@H]1O` [Pevonedistat], the drug sensitivity score in experiment [1] (setting [3]) is 14 DSS; in experiment [1] (co-cultured fibroblast: WI38), 19.1 DSS; in experiment [1] (setting [4]), 18.2 DSS; in experiment [2] (setting [3]), 20.9 DSS; in experiment [2] (co-cultured fibroblast: WI38), 12.5 DSS; in experiment [2] (setting [4]), 26.4 DSS.
As to `O=c1sn(-c2cccc3ccccc23)c(=O)n1Cc1ccccc1` [Tideglusib], the drug sensitivity score was 0 DSS in experiment [1] (setting [3]); 0 DSS in experiment [1] (co-cultured fibroblast: WI38); 0 DSS in experiment [1] (setting [4]); 0.4 DSS in experiment [2] (setting [3]); 1.5 DSS in experiment [2] (co-cultured fibroblast: WI38); 0 DSS in experiment [2] (setting [4]).
`Cc1nc(-c2cn3c(n2)-c2ccc(-c4cnn(C(C)(C)C(N)=O)c4)cc2OCC3)n(C(C)C)n1` [Taselisib]: the drug sensitivity score in experiment [1] (setting [3]) is 9.2 DSS; in experiment [1] (co-cultured fibroblast: WI38), 4.7 DSS; in experiment [1] (setting [4]), 10.7 DSS; in experiment [2] (setting [3]), 3.1 DSS; in experiment [2] (co-cultured fibroblast: WI38), 0 DSS; in experiment [2] (setting [4]), 3.3 DSS.
As for `CCc1cncnc1N1CCN(Cc2nc3ccc(C(F)(F)F)cc3[nH]2)CC1`, the drug sensitivity score in experiment [1] (setting [3]) was 1 DSS; in experiment [1] (co-cultured fibroblast: WI38), 0 DSS; in experiment [1] (setting [4]) it was 2.1 DSS; in experiment [2] (setting [3]), 1.3 DSS; in experiment [2] (co-cultured fibroblast: WI38) it was 0 DSS; in experiment [2] (setting [4]) it was 2.4 DSS.
For `Cc1cc(Nc2cc(N3CCN(C)CC3)nc(/C=C/c3ccccc3)n2)n[nH]1` [ENMD-2076], the drug sensitivity score worked out at 11.1 DSS in experiment [1] (setting [3]); 8.4 DSS in experiment [1] (co-cultured fibroblast: WI38); 3.7 DSS in experiment [1] (setting [4]); 13.1 DSS in experiment [2] (setting [3]); 8.6 DSS in experiment [2] (co-cultured fibroblast: WI38); 10.6 DSS in experiment [2] (setting [4]).
For the compound `CC(C)(C)c1cc(NC(=O)Nc2ccc(Oc3ccnc4[nH]c(=O)cnc34)cc2F)n(-c2ccccc2)n1`, the drug sensitivity score was determined as 10 DSS in experiment [1] (setting [3]); 6.1 DSS in experiment [1] (co-cultured fibroblast: WI38); 7 DSS in experiment [1] (setting [4]); 6.6 DSS in experiment [2] (setting [3]); 3.4 DSS in experiment [2] (co-cultured fibroblast: WI38); 4.6 DSS in experiment [2] (setting [4]).
Turning to `COc1cc(Nc2ncc(F)c(Nc3ccc4c(n3)N(COP(=O)(O)O)C(=O)C(C)(C)O4)n2)cc(OC)c1OC` [Fostamatinib], the drug sensitivity score in experiment [1] (setting [3]) turned out to be 0 DSS; in experiment [1] (co-cultured fibroblast: WI38), 2 DSS; in experiment [1] (setting [4]) it was 0.3 DSS; in experiment [2] (setting [3]), 0 DSS; in experiment [2] (co-cultured fibroblast: WI38), 0 DSS; in experiment [2] (setting [4]) it was 0 DSS.
